Results: patent publication US20150164762A1, “USE OF ETHANOLAMINE PHOSPHATE” (priority 2012, published 2015)
Values joined by “and” are separate entries in the source; they are usually repeats but may differ in a detail not shown here. Equal entries are not always repeated.

Test system: BEAS-2B
Test: Comprehensive gene expression analysis with Whole Human Genome DNA microarray after EP treatment
Assay type: cell-based
Method: Cells of the established normal human airway epithelial cell line BEAS-2B were used in the experiment. These cells were expansively cultured in 10% FBS RPMI-1640, and seeded at a density of 1×10^5/cm^2 on a 24-well plate. After 24 hours 0.1% FBS RPMI-1640 was substituted, and EP was administered to a final concentration of 0 or 1 mM (n=4). After 24 hours, the cells were used as the DNA microarray samples. RNA was extracted using a QIAGEN RNeasy Mini Kit. The DNA microarray test was performed using a Whole Human Genome DNA microarray 4×44K (Agilent), and the necessary labeling reagents and the like for the DNA microarray test were all from Agilent. The DNA microarray test data were analyzed statistically with GeneSpring (Agilent) dedicated analysis software, and gene function analysis (Gene Ontology (GO) analysis) was performed based on differential expression. The purpose of the GO analysis is to determine stochastically the degree to which gene sets with statistically significant differential expression correspond to known functional classification gene sets. […] The p-value is calculated according to the following formula.

[1] = probe A_23_P1361, NM_002860, EP vs control
[2] = probe A_23_P5392, 1 mM EP, 24 h
[3] = probe A_23_P8961, NM_000880, EP vs control
[4] = probe A_23_P15247, 1 mM EP, 24 h
[5] = probe A_23_P16523, NM_004864, EP vs control
[6] = probe A_23_P21134, 1 mM EP, 24 h
[7] = probe A_23_P23960, 1 mM EP, 24 h
[8] = probe A_23_P25354, 1 mM EP, 24 h
[9] = probe A_23_P28625, 1 mM EP, 24 h
[10] = probe A_23_P29754, NM_203314, EP vs control
[11] = probe A_23_P30122, NM_000586, EP vs control
[12] = probe A_23_P34804, 1 mM EP, 24 h
[13] = probe A_23_P37736, 1 mM EP, 24 h
[14] = probe A_23_P40453, NM_001236, EP vs control
[15] = probe A_23_P45133, NM_27087, EP vs control
[16] = probe A_23_P48740, NM_013989, EP vs control
[17] = probe A_23_P51361, NM_175852, EP vs control
[18] = probe A_23_P53467, 1 mM EP, 24 h
[19] = probe A_23_P54144, 1 mM EP, 24 h
[20] = probe A_23_P55544, 1 mM EP, 24 h
[21] = probe A_23_P56922, 1 mM EP, 24 h
[22] = probe A_23_P56933, 1 mM EP, 24 h
[23] = probe A_23_P58180, NM_207352, EP vs control
[24] = probe A_23_P62959, 1 mM EP, 24 h
[25] = probe A_23_P63898, 1 mM EP, 24 h
[26] = probe A_23_P64129, NM_006410, EP vs control
[27] = probe A_23_P64129, 1 mM EP, 24 h
[28] = probe A_23_P67169, NM_000641, EP vs control
[29] = probe A_23_P68487, NM_001719, EP vs control
[30] = probe A_23_P69030, 1 mM EP, 24 h
[31] = probe A_23_P70398, NM_001025370, EP vs control
[32] = probe A_23_P72096, NM_000575, EP vs control
[33] = probe A_23_P72096, 1 mM EP, 24 h
[34] = probe A_23_P72285, 1 mM EP, 24 h
[35] = probe A_23_P74081, 1 mM EP, 24 h
[36] = probe A_23_P74380, 1 mM EP, 24 h
[37] = probe A_23_P76078, NM_016584, EP vs control
[38] = probe A_23_P81805, NM_001025366, EP vs control
[39] = probe A_23_P82550, 1 mM EP, 24 h
[40] = probe A_23_P87560, 1 mM EP, 24 h
[41] = probe A_23_P88404, 1 mM EP, 24 h
[42] = probe A_23_P88589, 1 mM EP, 24 h
[43] = probe A_23_P89550, 1 mM EP, 24 h
[44] = probe A_23_P89835, 1 mM EP, 24 h
[45] = probe A_23_P90601, NM_182915, EP vs control
[46] = probe A_23_P91504, 1 mM EP, 24 h

## NCCOP(=O)(O)O [EP, Ethanolamine phosphate]
P2RX7, probe A_23_P25354
  R*: Ratio to control: 0.561 times
  log2 [ratio]: −0.834
P2RX7, probe A_24_P319113
  R*: Ratio to control: 0.586 times
  log2 [ratio]: −0.772
PERP, probe A_23_P214950
  R*: Ratio to control: 0.521 times
  log2 [ratio]: −0.941
PHLDA3, probe A_23_P62959
  R*: Ratio to control: 0.271 times
  log2 [ratio]: −1.884
PLK1, probe A_23_P118174
  R*: Ratio to control: 2.447 times
  log2 [ratio]: 1.291
PLK1, probe A_24_P313504
  R*: Ratio to control: 1.939 times
  log2 [ratio]: 0.955
PMAIP1, probe A_23_P207999
  R*: Ratio to control: 0.344 times
  log2 [ratio]: −1.540
PML, probe A_23_P358944
  R*: Ratio to control: 0.586 times
  log2 [ratio]: −0.770
PPAP2B, probe A_23_P201808
  R*: Ratio to control: 1.919 times
  log2 [ratio]: 0.941
ROBO4, probe A_23_P104881
  R*: Ratio to control: 1.785 times
  log2 [ratio]: 0.836
ROBO4, probe A_23_P344421
  R*: Ratio to control: 1.633 times
  log2 [ratio]: 0.707
RTN4, probe A_23_P56933
  R*: Ratio to control: 1.510 times
  log2 [ratio]: 0.594
SEMA4D, probe A_24_P261169
  R*: Ratio to control: 0.558 times
  log2 [ratio]: −0.842
SEPT4, probe A_23_P207003
  R*: Ratio to control: 0.503 times
  log2 [ratio]: −0.990
SKP2, probe A_23_P156310
  R*: Ratio to control: 1.531 times
  log2 [ratio]: 0.615
SOX7, probe A_23_P169738
  R*: Ratio to control: 0.362 times
  log2 [ratio]: −1.464
SOX7, probe A_23_P306987
  R*: Ratio to control: 0.338 times
  log2 [ratio]: −1.566
SOX7, probe A_24_P226782
  R*: Ratio to control: 0.607 times
  log2 [ratio]: −0.720
SST, probe A_23_P252817
  R*: Ratio to control: 0.666 times
  log2 [ratio]: −0.587
TACSTD2, probe A_23_P149529
  R*: Ratio to control: 1.507 times
  log2 [ratio]: 0.591
TGFBR2, probe A_23_P211957
  R*: Ratio to control: 1.634 times
  log2 [ratio]: 0.708
TGFBR2, probe A_23_P337242
  R*: Ratio to control: 1.630 times
  log2 [ratio]: 0.705
TNFRSF17, probe A_23_P37736
  R*: Ratio to control: 2.525 times
  log2 [ratio]: 1.336
VEGFC, probe A_23_P167096
  R*: Ratio to control: 1.637 times
  log2 [ratio]: 0.711
WARS2, probe A_23_P74380
  R*: Ratio to control: 1.594 times
  log2 [ratio]: 0.673
WDR12, probe A_23_P28625
  R*: Ratio to control: 1.676 times
  log2 [ratio]: 0.745
ZFPM2, probe A_23_P168909
  R*: Ratio to control: 1.678 times
  log2 [ratio]: 0.746
[1]
  ALDH18A1 gene expression, R* ratio to control: 1.460 times
  ALDH18A1 gene expression, log2 [ratio]: 0.546
[2]
  TP53I3 expression R*: Ratio to control: 0.423 times
  TP53I3 expression log2 [ratio]: −1.241
[3]
  IL7 gene expression, R* ratio to control: 0.103 times
  IL7 gene expression, log2 [ratio]: −3.273
[4]
  C16orf5 expression R*: Ratio to control: 0.519 times
  C16orf5 expression log2 [ratio]: −0.947
[5]
  GDF15 gene expression, R* ratio to control: 0.104 times
  GDF15 gene expression, log2 [ratio]: −3.265
[6]
  DDIT3 expression R*: Ratio to control: 0.210 times
  DDIT3 expression log2 [ratio]: −2.249
[7]
  BLOC1S2 expression R*: Ratio to control: 0.398 times
  BLOC1S2 expression log2 [ratio]: −1.336
[8]
  P2RX7 expression R: Ratio to control: 0.661 times
  P2RX7 expression log2 [ratio]: −0.834
[9]
  WDR12 expression R*: Ratio to control: 1.676 times
  WDR12 expression log2 [ratio]: 0.745
[10]
  BDH1 gene expression, R* ratio to control: 1.462 times
  BDH1 gene expression, log2 [ratio]: 0.548
[11]
  IL2 gene expression, R* ratio to control: 0.537 times
  IL2 gene expression, log2 [ratio]: −0.898
[12]
  NTRK1 expression R: Ratio to control: 0.261 times
  NTRK1 expression log2 [ratio]: −1.936
[13]
  TNFRSF17 expression R*: Ratio to control: 2.525 times
  TNFRSF17 expression log2 [ratio]: 1.336
[14]
  CBR3 gene expression, R* ratio to control: 1.406 times
  CBR3 gene expression, log2 [ratio]: 0.491
[15]
  CSF1 gene expression, R* ratio to control: 0.602 times
  CSF1 gene expression, log2 [ratio]: −0.732
[16]
  DIO2 gene expression, R* ratio to control: 1.694 times
  DIO2 gene expression, log2 [ratio]: 0.761
[17]
  TXLNA gene expression, R* ratio to control: 0.560 times
  TXLNA gene expression, log2 [ratio]: −0.837
[18]
  IKBIP expression R*: Ratio to control: 0.626 times
  IKBIP expression log2 [ratio]: −0.675
[19]
  BMP4 expression R*: Ratio to control: 1.820 times
  BMP4 expression log2 [ratio]: 0.864
[20]
  CCBE1 expression R*: Ratio to control: 1.755 times
  CCBE1 expression log2 [ratio]: 0.811
[21]
  HSPE1 expression R*: Ratio to control: 1.531 times
  HSPE1 expression log2 [ratio]: 0.615
[22]
  RTN4 expression R*: Ratio to control: 1.510 times
  RTN4 expression log2 [ratio]: 0.594
[23]
  CYP4V2 gene expression, R* ratio to control: 2.178 times
  CYP4V2 gene expression, log2 [ratio]: 1.123
[24]
  PHLDA3 expression R: Ratio to control: 0.271 times
  PHLDA3 expression log2 [ratio]: −1.884
[25]
  FAS expression R*: Ratio to control: 0.364 times
  FAS expression log2 [ratio]: −1.457
[26]
  HTATIP2 gene expression, R* ratio to control: 1.735 times
  HTATIP2 gene expression, log2 [ratio]: 0.795
[27]
  HTATIP2 expression R*: Ratio to control: 1.735 times
  HTATIP2 expression log2 [ratio]: 0.795
[28]
  IL11 gene expression, R* ratio to control: 0.358 times
  IL11 gene expression, log2 [ratio]: −1.482
[29]
  BMP7 gene expression, R* ratio to control: 0.136 times
  BMP7 gene expression, log2 [ratio]: −2.883
[30]
  COL8A1 expression R*: Ratio to control: 1.999 times
  COL8A1 expression log2 [ratio]: 0.999
[31]
  VEGFA gene expression, R* ratio to control: 0.501 times
  VEGFA gene expression, log2 [ratio]: −0.997
[32]
  IL1A gene expression, R* ratio to control: 0.216 times
  IL1A gene expression, log2 [ratio]: −2.211
[33]
  IL1A expression R*: Ratio to control: 0.216 times
  IL1A expression log2 [ratio]: −2.211
[34]
  YWHAE expression R*: Ratio to control: 1.529 times
  YWHAE expression log2 [ratio]: 0.813 and 0.613
[35]
  TP73 expression R*: Ratio to control: 0.557 times
  TP73 expression log2 [ratio]: −0.843
[36]
  WARS2 expression R*: Ratio to control: 1.594 times
  WARS2 expression log2 [ratio]: 0.673
[37]
  IL23A gene expression, R* ratio to control: 0.508 times
  IL23A gene expression, log2 [ratio]: −0.977
[38]
  VEGFA gene expression, R* ratio to control: 0.611 times
  VEGFA gene expression, log2 [ratio]: −0.710
[39]
  STK17A expression R*: Ratio to control: 0.623 times
  STK17A expression log2 [ratio]: −0.683
[40]
  BTG1 expression R*: Ratio to control: 0.41B
  BTG1 expression log2 [ratio]: −1.265
[41]
  TGFB3 expression R*: Ratio to control: 0.590 times
  TGFB3 expression log2 [ratio]: −0.761
[42]
  NR2F2 expression R*: Ratio to control: 1.662 times
  NR2F2 expression log2 [ratio]: 0.733
[43]
  NLRP1 expression R*: Ratio to control: 0.483 times
  NLRP1 expression log2 [ratio]: −1.048
[44]
  MAPRE2 expression R*: Ratio to control: 1.538 times
  MAPRE2 expression log2 [ratio]: 0.621
[45]
  STEAP3 gene expression, R* ratio to control: 2.194 times
  STEAP3 gene expression, log2 [ratio]: 1.134
[46]
  ITSN1 expression R*: Ratio to control: 3.487 times
  ITSN1 expression log2 [ratio]: 1.802
Probe A_23_P92025, 1 mM EP, 24 h
  CIDEC expression R*: Ratio to control: 0.593 times
